# Paper PMC10886162, “Synthesis of Novel Artemisinin, Ciprofloxacin, and Norfloxacin Hybrids with Potent Antiplasmodial Activity” (Antibiotics, 2024)
# Legend:
# [1] = tested on: 3D7 strain; parameters: method as in PMID 30023664; settings: cited from earlier work
# [2] = tested on: 3D7 P. falciparum strain; parameters: method as in PMID 32676153; settings: cited from earlier work
# [3] = tested on: W2 P. falciparum strain; parameters: method as in PMID 32676153; settings: cited from earlier work
# [4] = tested on: mammalian and bacterial systems; parameters: method as in PMID 32676153; settings: cited from earlier work
# [5] = tested on: CQ-resistant P. falciparum FcB1 strain; assay: In vitro growth inhibition of P. falciparum FcB1 ([3H]-hypoxanthine incorporation); format: cell-based, Plasmodium falciparum; settings: for IC50: Plasmodium falciparum; for Selectivity Index (IC50 AB943/IC50 FcB1): ratio of cytotoxicity IC50 to antiplasmodial IC50 (FcB1)
# Experimental: (§1) The chloroquine-resistant FcB1/Colombia and Dd2/Indochina strains of Plasmodium falciparum were obtained from the Protist Collection of the National Museum of Natural History, Paris, France (n° MNHN-CEU-2016-224-PfFCB1 and MNHN-CEU-2016-222-PfDD2). The parasites were maintained in vitro on human erythrocytes in RPMI 1640 medium supplemented by 8% (v/v) heat-inactivated human serum, at 37 °C, under an atmosphere of 5% CO2. The human red blood cells and serum were provided by the Établissement Français du Sang under the C-CPSL-UNT approval no. 13/EFS/126. The in vitro drug susceptibility assays were measured by [^3H]-hypoxanthine incorporation, as previously described. The drug stock solutions were prepared in DMSO. Briefly, the assays were performed in 96-well plates. The compounds were diluted in the culture medium (100 μL per well). The parasite cultures (100 μL, 2% parasitaemia, and 1% final hematocrit) were then added to each well and incubated for 24 h at 37 °C prior to the addition of 0.5 μCi of [^3H]- hypoxanthine (GE Healthcare, Paris, France, 1 to 5 Ci·mmol/mL) per well. After a further incubation of 24 h, the plates were frozen and thawed. The cell lysates were then collected onto fiberglass filters and counted in a liquid scintillation spectrometer. The growth inhibition for each drug concentration was determined through a comparison of the radioactivity incorporated in the treated culture with that in the control culture maintained on the same plate. The drugs were first evaluated for a range of fixed concentrations of 50, 5, 0.5, 0.05, and 0.005 μg/mL. […] The IC50 value was obtained from the drug concentration–response curve, and the results were expressed in μM or nM as the mean values ± standard deviations determined from several independent experiments. Artesunate (46) was used as an antimalarial drug control.
# [6] = tested on: CQ-resistant Dd2 strain of P. falciparum; assay: In vitro growth inhibition of P. falciparum Dd2 ([3H]-hypoxanthine incorporation); format: cell-based, Plasmodium falciparum; settings: for IC50: Plasmodium falciparum, CQ-resistant Dd2, mean +/− SD of at least three independent experiments; for Selectivity Index (IC50 AB943/IC50 Dd2): ratio of cytotoxicity IC50 to antiplasmodial IC50 (Dd2)
# Experimental: as §1
# [7] = tested on: human primary fibroblasts AB943; assay: Cytotoxicity upon human primary fibroblasts AB943 (resazurin); format: cell-based; settings: Fibroblast, 72 h, mean +/− SD of at least three independent experiments
# Experimental: A cellular cytotoxicity evaluation was performed upon human primary fibroblasts AB943, as previously described. The assays were realized in 96-well plates in DMEM + Glutamax without phenol red medium containing 25 mM HEPES, a pH of 7.3, and 10% of fetal calf serum under a 5% CO2 atmosphere, at 37 °C. After trypsin treatment, the AB943 cells were seeded at 2000 cells per well in 100 μL. After 24 h of incubation, drugs diluted in the culture medium were added (100 μL per well). The drug stock solutions were prepared in dimethyl sulfoxide (DMSO). The final DMSO concentration in the cultures remained below 1%. Control cultures were constituted of cultures treated with DMSO instead of the drug. The cytotoxicity assay was based on the conversion of a redo-sensitive dye (resazurin) to a fluorescent product via viable cells. After 72 h of incubation, the resazurin solution was added in each well at a final concentration of 45 μM. The fluorescence was measured at 530 nm excitation and 590 nm emission wavelengths after 4 h of incubation. The percentage of the inhibition of cell growth was calculated by comparing the fluorescence of cells maintained in the presence of the drug to that in the absence of the drug. The concentration causing 50% growth inhibition (IC50) was obtained from the drug concentration–response curve, and the results were expressed as the mean values ± standard deviations determined from several experiments.
# [8] = tested on: P. falciparum parasite strains (3D7, Dd2, and K1); parameters: method as in PMID 31290221; settings: range over 3D7, Dd2 and K1 strains; cited from earlier work
# [9] = tested on: CQ-resistant P. falciparum strain FcB1; settings: cited from earlier work
# [10] = FCB1, CQ-resistant FcB1, mean +/− standard deviation of independent experiments (at least four in Tables 1-2, at least three in Tables 3-4)
SMILES,EC50 [1] [nM],"IC50 [5, 10] [nM]",Selectivity Index (IC50 AB943/IC50 FcB1) [5],IC50 [6] [nM],Selectivity Index (IC50 AB943/IC50 Dd2) [6],IC50 [7] [nM],further results
"CCN(CC)CCCC(C)Nc1ccnc2cc(Cl)ccc12 (stereo not drawn) [CQ, chloroquine]",9.8 ± 2.8,,,,,,
CCOC(=O)c1cn(C2CC2)c2cc(N3CCN(c4ccnc5cc(Cl)ccc45)CC3)c(F)cc2c1=O [hybrid 10],,,,,,,IC50 [2]: 63.2 ± 1.2 nM; IC50 [3]: 25.5 ± 4.45 nM; toxicity to mammalian and bacterial systems [4]: nontoxic
"C[C@H]1[C@H](OC(=O)CCC(=O)O)O[C@@H]2O[C@@]3(C)CC[C@H]4[C@H](C)CC[C@@H]1[C@@]24OO3 [AS (46), artesunate, reference compound]",,18.5,>7042,41.9,>3104,> 130000,"IC50 ([5]; FCB1, Table 5, single compound (hybrid or AS alone)): 4.5 nM; EC50 [8]: 5.2 to 14.4 nM"
"C[C@H]1[C@@H](O)O[C@@H]2O[C@@]3(C)CC[C@H]4[C@H](C)CC[C@@H]1[C@@]24OO3 [DHA, dihydroartemisinin]",2.4 ± 0.4,,,,,,
"C[C@@H]1CC[C@H]2[C@@H](C)C(=O)O[C@@H]3O[C@@]4(C)CC[C@@H]1[C@]32OO4 [ART, artemisinin]",,,,,,,IC50 [9]: 55 ± 13.6 nM
CC1CCC2C(C)C(OC(=O)CCC(=O)OCCNc3ccnc4cc(Cl)ccc34)OC3OC4(C)CCC1C32OO4 (stereo not drawn) [hybrid 4],,,,,,,EC50 [8]: 1.7 to 4.5 nM
"C[C@@H]1CCC2[C@@H](C)[C@@H](CC(=O)N3CCN(c4cc5c(cc4F)c(=O)c(C(=O)N4CCN(c6ccnc7cc(Cl)ccc67)CC4)cn5C4CC4)CC3)O[C@@H]3O[C@@]4(C)CCC1[C@@]23OO4 (stereo partly drawn) [Compound 25, 3-(4-(7-chloroquinolin-4-yl)piperazine-1-carbonyl)-1-cyclopropyl-6-fluoro-7-(4-(2-((3R,6R,9R,10R,12R,12aR)-3,6,9-trimethyldecahydro-12H-3,12-epoxy[1,2]dioxepino[4,3-i]isochromen-10-yl)acetyl)piperazin-1-yl)quinolin-4(1H)-one]",,7.5,521,17.7,220,3900,melting point: 160.2 to 161.3 °C
"CCn1cc(C(=O)N2CCN(c3ccnc4cc(Cl)ccc34)CC2)c(=O)c2cc(F)c(N3CCN(C(=O)CCC(=O)O[C@@H]4O[C@@H]5O[C@@]6(C)CCC7[C@H](C)CCC([C@H]4C)[C@]75OO6)CC3)cc21 (stereo partly drawn) [Compound 29, (3R,6R,9R,10S,12R,12aR)-3,6,9-trimethyldecahydro-12H-3,12-epoxy[1,2]dioxepino[4,3-i]isochromen-10-yl 4-(4-(3-(4-(7-chloroquinolin-4-yl)piperazine-1-carbonyl)-1-ethyl-6-fluoro-4-oxo-1,4-dihydroquinolin-7-yl)piperazin-1-yl)-4-oxobutanoate]",,5,6027,18.2,1658,30300,melting point: 168.7 to 169.6 °C
CC1CCC2C(C)C(OC(=O)CCC(=O)OCCNc3ccc4ncnc(Nc5ccc(Cl)c(Cl)c5)c4c3)OC3OC4(C)CCC1C32OO4 (stereo not drawn) [hybrid 3],1.4 ± 0.4,,,,,,
